Data on 13 molecules can be found in the kinase profiling compilation of Christmann-Franck et al. (2016).

SMILES strings stand for the structures.

Common to all, as to assay: KINOMEscan competition binding
Common to all, as to conditions: compound 10.0 µM

Experiment [1] deals with CDK3 (human) (UniProt Q00526).
The test system of experiment [2] is EGFR (human), P00533 [A750P; 747-749 del].
For experiment [3], the target named is CAMK2G (human) (UniProt Q13555).
Experiment [4] addresses ROS1 (human) (UniProt P08922).
Experiment [5] addresses NEK7 (human) (UniProt Q8TDX7).
Experiment [6] addresses ACVR1B (human) (UniProt P36896).
In experiment [7] the target is PAK2 (human) (UniProt Q13177).
The test system of experiment [8] is ABL1 (human), P00519 [H396P].
The target of experiment [9] is NTRK1 (human) (UniProt P04629).
For experiment [10], the target named is MAPK6 (human) (UniProt Q16659).
Experiment [11] has as its target BMPR2 (human) (UniProt Q13873).
Experiment [12] concerns the target TEC (human) (UniProt P42680).
Experiment [13] concerns the target EPHA7 (human) (UniProt Q15375).
For experiment [14], the target named is IKBKB (human) (UniProt O14920).
IKBKB (human), sequence (O14920 whole entry, looked up): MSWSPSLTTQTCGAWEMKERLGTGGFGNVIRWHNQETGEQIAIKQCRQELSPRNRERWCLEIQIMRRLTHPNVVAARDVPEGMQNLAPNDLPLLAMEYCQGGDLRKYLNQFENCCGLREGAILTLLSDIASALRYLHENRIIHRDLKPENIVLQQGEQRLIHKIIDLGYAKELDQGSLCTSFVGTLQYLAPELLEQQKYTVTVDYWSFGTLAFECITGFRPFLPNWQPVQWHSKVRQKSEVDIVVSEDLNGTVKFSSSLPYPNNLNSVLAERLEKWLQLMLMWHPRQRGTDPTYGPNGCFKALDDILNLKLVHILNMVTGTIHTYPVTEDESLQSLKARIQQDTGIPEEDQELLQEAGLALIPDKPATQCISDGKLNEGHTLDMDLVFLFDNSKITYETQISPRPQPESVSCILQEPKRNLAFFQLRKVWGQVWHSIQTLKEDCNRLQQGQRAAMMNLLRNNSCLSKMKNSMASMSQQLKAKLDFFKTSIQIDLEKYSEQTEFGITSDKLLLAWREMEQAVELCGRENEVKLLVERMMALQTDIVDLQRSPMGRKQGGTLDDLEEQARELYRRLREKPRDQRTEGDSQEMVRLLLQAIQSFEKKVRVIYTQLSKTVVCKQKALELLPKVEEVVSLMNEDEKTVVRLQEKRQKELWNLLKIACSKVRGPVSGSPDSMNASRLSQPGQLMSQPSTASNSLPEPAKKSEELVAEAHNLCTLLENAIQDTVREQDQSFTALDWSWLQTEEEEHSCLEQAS
The subject of experiment [15] is EGFR (human), P00533 [G719C; 746-750 del].
Experiment [16] has as its target FGR (human) (UniProt P09769).
Experiment [17] deals with CDK18 (human) (UniProt Q07002).
The target of experiment [18] is MAP2K2 (human) (UniProt P36507).
In experiment [19] the target is CAMK4 (human) (UniProt Q16566).
Experiment [20] concerns the target MST1R (human) (UniProt Q04912).
Experiment [21] concerns the target AXL (human) (UniProt P30530).
The test system of experiment [22] is ABL1 (human), P00519 [E255K].
Experiment [23] addresses TXK (human) (UniProt P42681).
In experiment [24] the target is MAPKAPK2 (human) (UniProt P49137).
In experiment [25] the target is DDR2 (human) (UniProt Q16832).
Experiment [26] has as its target AURKA (human) (UniProt O14965).
For experiment [27], the target named is NTRK2 (human) (UniProt Q16620).
The target of experiment [28] is DCLK2 (human) (UniProt Q8N568).
In experiment [29] the target is AKT3 (human) (UniProt Q9Y243).
For experiment [30], the target named is PIK3C2B (human) (UniProt O00750).
PIK3C2B (human), sequence (O00750 whole entry, looked up): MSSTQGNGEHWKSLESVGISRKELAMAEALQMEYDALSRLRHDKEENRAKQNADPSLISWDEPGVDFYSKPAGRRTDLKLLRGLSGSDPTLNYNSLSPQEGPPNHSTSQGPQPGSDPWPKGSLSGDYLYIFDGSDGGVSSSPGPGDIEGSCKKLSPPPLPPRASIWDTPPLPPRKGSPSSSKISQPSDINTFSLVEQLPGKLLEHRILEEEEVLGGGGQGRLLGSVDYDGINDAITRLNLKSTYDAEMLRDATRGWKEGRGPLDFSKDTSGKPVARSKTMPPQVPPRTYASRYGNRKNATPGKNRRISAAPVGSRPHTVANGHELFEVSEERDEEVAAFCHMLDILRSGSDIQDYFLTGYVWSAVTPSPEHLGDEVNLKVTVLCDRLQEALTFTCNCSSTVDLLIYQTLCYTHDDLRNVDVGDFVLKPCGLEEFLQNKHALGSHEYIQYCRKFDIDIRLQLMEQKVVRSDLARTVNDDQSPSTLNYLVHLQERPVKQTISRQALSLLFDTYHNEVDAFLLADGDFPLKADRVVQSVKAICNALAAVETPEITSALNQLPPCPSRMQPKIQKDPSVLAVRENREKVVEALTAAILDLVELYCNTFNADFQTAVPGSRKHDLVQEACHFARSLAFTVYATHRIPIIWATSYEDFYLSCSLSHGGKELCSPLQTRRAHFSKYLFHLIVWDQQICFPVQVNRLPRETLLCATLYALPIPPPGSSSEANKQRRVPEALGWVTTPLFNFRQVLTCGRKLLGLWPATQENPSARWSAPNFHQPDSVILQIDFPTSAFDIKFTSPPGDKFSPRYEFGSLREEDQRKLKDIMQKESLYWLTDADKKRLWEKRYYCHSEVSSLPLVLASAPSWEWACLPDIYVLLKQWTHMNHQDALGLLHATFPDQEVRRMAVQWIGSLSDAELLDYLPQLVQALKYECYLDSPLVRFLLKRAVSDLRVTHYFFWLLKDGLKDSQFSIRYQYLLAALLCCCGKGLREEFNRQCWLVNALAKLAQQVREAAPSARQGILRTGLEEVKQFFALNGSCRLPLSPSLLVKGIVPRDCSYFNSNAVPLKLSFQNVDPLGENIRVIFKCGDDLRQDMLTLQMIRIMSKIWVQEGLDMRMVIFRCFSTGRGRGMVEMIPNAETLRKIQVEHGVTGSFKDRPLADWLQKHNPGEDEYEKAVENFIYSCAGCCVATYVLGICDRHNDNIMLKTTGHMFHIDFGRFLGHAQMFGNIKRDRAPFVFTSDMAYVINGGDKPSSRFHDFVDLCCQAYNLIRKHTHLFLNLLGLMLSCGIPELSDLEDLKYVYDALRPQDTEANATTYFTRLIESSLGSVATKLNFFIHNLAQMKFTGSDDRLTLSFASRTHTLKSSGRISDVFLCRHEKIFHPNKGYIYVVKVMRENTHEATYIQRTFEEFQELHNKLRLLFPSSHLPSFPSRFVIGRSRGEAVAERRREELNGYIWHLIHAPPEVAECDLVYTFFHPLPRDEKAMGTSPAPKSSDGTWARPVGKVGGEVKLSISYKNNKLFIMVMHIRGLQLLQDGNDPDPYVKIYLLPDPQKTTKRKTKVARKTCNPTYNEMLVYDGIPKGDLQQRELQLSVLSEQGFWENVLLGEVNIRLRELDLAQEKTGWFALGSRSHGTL
For experiment [31], the target named is ITK (human) (UniProt Q08881).
For experiment [32], the target named is CDK9 (human) (UniProt P50750).
The target in experiment [33] is MAP3K9 (human) (UniProt P80192).
The target in experiment [34] is CSNK1A1L (human) (UniProt Q8N752).
The target in experiment [35] is PKN2 (human) (UniProt Q16513).
PKN2 (human), sequence (Q16513 whole entry, looked up): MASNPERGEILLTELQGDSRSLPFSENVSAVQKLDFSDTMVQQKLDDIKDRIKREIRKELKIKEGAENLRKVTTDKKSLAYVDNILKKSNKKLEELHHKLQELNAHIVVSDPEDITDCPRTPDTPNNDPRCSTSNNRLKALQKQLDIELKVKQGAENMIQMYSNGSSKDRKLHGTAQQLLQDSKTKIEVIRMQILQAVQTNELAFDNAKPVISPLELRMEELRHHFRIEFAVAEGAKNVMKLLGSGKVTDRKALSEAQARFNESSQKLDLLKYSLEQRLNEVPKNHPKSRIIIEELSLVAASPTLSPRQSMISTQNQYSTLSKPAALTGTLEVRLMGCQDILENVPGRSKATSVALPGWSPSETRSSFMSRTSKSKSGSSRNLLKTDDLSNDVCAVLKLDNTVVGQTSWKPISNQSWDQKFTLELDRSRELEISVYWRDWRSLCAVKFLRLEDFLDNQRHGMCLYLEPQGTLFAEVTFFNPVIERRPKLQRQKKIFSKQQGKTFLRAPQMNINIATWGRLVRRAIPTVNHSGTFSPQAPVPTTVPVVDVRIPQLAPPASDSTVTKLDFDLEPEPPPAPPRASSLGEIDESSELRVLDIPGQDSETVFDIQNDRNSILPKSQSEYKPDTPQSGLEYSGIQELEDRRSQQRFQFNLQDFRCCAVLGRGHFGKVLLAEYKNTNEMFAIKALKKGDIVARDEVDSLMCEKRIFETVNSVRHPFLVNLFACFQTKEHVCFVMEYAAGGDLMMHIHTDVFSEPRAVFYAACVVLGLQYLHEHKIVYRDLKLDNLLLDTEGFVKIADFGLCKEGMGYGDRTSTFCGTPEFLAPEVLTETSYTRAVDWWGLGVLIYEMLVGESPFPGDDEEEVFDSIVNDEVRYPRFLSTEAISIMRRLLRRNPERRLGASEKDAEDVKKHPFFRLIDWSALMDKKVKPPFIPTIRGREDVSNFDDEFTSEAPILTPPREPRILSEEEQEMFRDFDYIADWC
In experiment [36] the test system is RET (human), P07949 [V804M].
In experiment [37] the target is MARK4 (human) (UniProt Q96L34).
For experiment [38], the target named is CDK11B (human) (UniProt P21127).
Experiment [39] has as its target PRKG2 (human) (UniProt Q13237).
For experiment [40], the system named is EGFR (human), P00533 [L858R].
The target of experiment [41] is MAPK13 (human) (UniProt O15264).

BMPR2 (human), sequence (Q13873 whole entry, looked up): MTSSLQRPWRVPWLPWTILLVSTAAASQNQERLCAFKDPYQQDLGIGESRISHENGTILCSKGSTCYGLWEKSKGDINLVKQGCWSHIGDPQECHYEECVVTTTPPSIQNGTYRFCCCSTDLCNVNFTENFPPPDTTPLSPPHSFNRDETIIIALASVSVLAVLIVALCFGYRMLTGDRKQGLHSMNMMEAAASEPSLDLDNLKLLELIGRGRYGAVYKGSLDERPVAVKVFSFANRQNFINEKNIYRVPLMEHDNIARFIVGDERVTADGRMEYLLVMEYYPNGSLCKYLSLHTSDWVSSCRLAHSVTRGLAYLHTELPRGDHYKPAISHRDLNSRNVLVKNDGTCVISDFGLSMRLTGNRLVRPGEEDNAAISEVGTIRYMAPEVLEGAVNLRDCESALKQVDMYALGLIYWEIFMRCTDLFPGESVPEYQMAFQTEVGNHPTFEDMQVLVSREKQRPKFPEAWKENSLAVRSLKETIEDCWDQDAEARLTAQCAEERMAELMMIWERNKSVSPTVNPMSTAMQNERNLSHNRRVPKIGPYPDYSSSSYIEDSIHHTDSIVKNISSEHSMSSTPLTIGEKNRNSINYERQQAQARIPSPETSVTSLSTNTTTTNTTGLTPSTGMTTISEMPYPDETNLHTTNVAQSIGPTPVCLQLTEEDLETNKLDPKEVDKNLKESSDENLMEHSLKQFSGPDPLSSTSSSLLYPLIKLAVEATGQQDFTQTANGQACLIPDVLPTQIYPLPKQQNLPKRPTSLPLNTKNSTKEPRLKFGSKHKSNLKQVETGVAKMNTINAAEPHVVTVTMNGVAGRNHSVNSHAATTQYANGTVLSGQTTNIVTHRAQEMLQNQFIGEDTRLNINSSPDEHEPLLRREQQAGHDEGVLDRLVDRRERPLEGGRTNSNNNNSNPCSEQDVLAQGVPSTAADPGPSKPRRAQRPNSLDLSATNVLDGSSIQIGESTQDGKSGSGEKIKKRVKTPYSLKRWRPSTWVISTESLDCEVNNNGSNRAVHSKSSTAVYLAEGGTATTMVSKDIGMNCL
NEK7 (human), sequence (Q8TDX7 whole entry, looked up): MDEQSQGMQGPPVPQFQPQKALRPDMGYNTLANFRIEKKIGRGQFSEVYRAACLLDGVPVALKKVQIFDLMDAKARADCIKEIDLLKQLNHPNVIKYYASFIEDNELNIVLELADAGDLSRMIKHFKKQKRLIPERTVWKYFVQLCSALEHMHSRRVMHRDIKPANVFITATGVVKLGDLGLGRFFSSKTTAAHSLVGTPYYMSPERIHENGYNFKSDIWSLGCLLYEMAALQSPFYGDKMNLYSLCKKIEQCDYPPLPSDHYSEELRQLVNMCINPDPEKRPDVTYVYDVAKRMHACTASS
CDK3 (human), sequence (Q00526 whole entry, looked up): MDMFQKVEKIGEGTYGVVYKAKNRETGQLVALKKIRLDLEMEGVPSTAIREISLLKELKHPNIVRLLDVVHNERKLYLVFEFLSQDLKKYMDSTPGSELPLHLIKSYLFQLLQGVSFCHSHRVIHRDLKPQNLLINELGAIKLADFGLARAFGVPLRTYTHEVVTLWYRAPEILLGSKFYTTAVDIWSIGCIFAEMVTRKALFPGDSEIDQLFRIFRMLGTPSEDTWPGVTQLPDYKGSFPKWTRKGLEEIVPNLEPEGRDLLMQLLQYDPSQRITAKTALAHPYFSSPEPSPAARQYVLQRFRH

On to `N=C1NC(=O)/C(=C/c2ccc(-c3ccc(F)cc3O)o2)S1`, for which the kinase still bound, per cent of control in experiment [1] is 6.5%; in [2], 29%.
In the case of `O=C1NC(=S)S/C1=C\c1ccc(-c2cncc3ccccc23)o1`, the kinase still bound, per cent of control in [3] worked out at 32%; in experiment [4], 34%; in experiment [5], 17%; in experiment [6], 32%; in [7], 31%.
For `COc1cc(N2CCN(C)CC2)ccc1Nc1ncc2c(n1)Nc1ccccc1NC2=O`, the kinase still bound, per cent of control in experiment [8] turned out to be 21%; in [3], 100%; in [9] it was 1.6%; in experiment [10], 100%; in experiment [11], 100%; in experiment [1] it was 85%. Also, the kinase still bound, per cent of control in experiment [12] stood at 87%; in experiment [13], 100%; in experiment [14], 100%; in experiment [4], 82%; in [5], 70%; in experiment [15] it was 39%. The kinase still bound, per cent of control in experiment [16] worked out at 73%; in experiment [17] it was 86%; in experiment [18], 95%; in experiment [19] it was 100%; in experiment [20], 100%; in experiment [21] it was 83%. The kinase still bound, per cent of control in [22] came to 19%; in [23] it was 80%; in [24], 96%; in [25], 100%; in experiment [26], 78%; in [27] it was 2.4%. The kinase still bound, per cent of control in experiment [6] amounted to 100%; in [28] it was 89%; in experiment [29] it was 100%; in experiment [30], 100%; in [31], 100%; in experiment [32] it was 100%. The kinase still bound, per cent of control in experiment [33] was determined as 82%; in [34], 100%; in experiment [35], 100%; in experiment [36], 100%; in experiment [37] it was 84%; in experiment [38], 100%. The kinase still bound, per cent of control came out at 33% in [2]; 80% in experiment [7]; 100% in experiment [39]; 28% in experiment [40]; 100% in [41].
Turning to `CS(=O)(=O)Nc1ccc(-c2cc(/C=C3\SC(=N)NC3=O)c[nH]c2=O)cc1`, in experiment [35], the kinase still bound, per cent of control was found to be 15%.
`Nc1cccc(-c2cc(/C=C3\SC(=O)NC3=O)c[nH]c2=O)c1`: the kinase still bound, per cent of control amounted to 29% in experiment [11]; 30% in experiment [15]; 33% in experiment [25]; 25% in experiment [32]; 9.4% in experiment [2]; 29% in [40].
For the molecule `N=C1NC(=O)/C(=C/c2ccc(-c3ccccc3O)o2)S1`, the kinase still bound, per cent of control in experiment [1] amounted to 24%; in [30] it was 31%.
As to `CS(=O)(=O)Nc1ccc(-c2ncc(/C=C3\SC(=N)NC3=O)s2)cc1`, in experiment [16], the kinase still bound, per cent of control worked out at 26%.
Regarding `N=C1NC(=O)/C(=C/c2ccc(-c3ccc(C(N)=O)cc3O)o2)S1`, the kinase still bound, per cent of control in experiment [1] is 30%; in [24] it was 25%; in experiment [30], 28%; in experiment [35], 31%.
As to `CN1C(=O)[C@H]2CCC[C@H]2N(C2CCCC2)c2nc(Nc3ccc(C(N)=O)cc3)ncc21`, the kinase still bound, per cent of control in experiment [11] stood at 23%; in experiment [21], 13%; in experiment [26] it was 7.6%; in experiment [28], 18%.
On to `N=C1NC(=O)/C(=C/c2ccc(-c3cncc4ccccc34)o2)S1`, for which the kinase still bound, per cent of control in experiment [3] was found to be 11%; in experiment [14] it was 26%; in [5] it was 15%; in experiment [23] it was 13%; in experiment [33], 28%; in experiment [35], 32%. Also, the kinase still bound, per cent of control in experiment [36] was found to be 16%; in experiment [7], 24%.
In turn, `CSC1=NC(=O)/C(=C/c2c[nH]c(=O)c(-c3ccc(NS(C)(=O)=O)cc3)c2)S1` displayed a kinase still bound, per cent of control in experiment [14] of 25%.
In the case of `N=C1NC(=O)/C(=C/c2ccc(-c3csc4ccccc34)o2)S1`, the kinase still bound, per cent of control in experiment [5] worked out at 33%; in experiment [19], 25%.
For the molecule `CS(=O)(=O)Nc1ccc(-c2cncc(/C=C3\SC(=N)NC3=O)c2)cc1`, the kinase still bound, per cent of control in experiment [6] was 29%; in [34], 21%; in experiment [2] it was 17%.
